Measurements from paper PMC4780679 (Inorganic chemistry, 2015).

Target: HydG (So HydG, WT HydG) (Shewanella oneidensis, UniProt Q8EAH9)
Assay: X-band CW EPR of the [4Fe-4S]RS cluster
Format: binding
Settings: pH 7.5, 10 K; [4Fe-4S]RS cluster site

Compound: C[S+](CC[C@H](N)C(=O)O)C[C@H]1O[C@@H](n2cnc3c(N)ncnc32)[C@H](O)[C@@H]1O (stereo partly drawn) [SAM, S-adenosyl-L-methionine]
- X-band CW EPR of the [4Fe-4S]RS cluster: interaction between the HydG [4Fe–4S]RS cluster and the substrates, Tyr or SAM
